Like-named read-outs stand apart in the source and are kept apart here.

For data set [1], the system named is Hh signaling (Gli Reporter-NIH3T3, Gli-responsive FLuc). The experiment in a line: Gli Reporter-NIH3T3 luciferase assay, mSHH or SAG induced. In kind it is cell-based. The conditions noted are these: mean ± SD, n=3. How it is done:
To further validate the effect of new triterpenes on Hh signaling, we used the commercial reporter cell line NIH3T3–Gli reporter, which expresses the firefly luciferase (FLuc) gene under the control of a Gli-responsive element.
Gli Reporter-NIH3T3 (BPS Bioscience) cells were cultured in DMEM medium supplemented with 10% iron-supplemented bovine calf serum and under the selection pressure of Geneticin (500 μg/mL) at 37 °C in an atmosphere of 5% CO2 with 95% humidity. The Gli Reporter-NIH3T3 cell line expresses the firefly luciferase (FLuc) gene under the control of a Gli responsive element stably integrated into NIH3T3 cells. The cell line was validated through response to mSHH stimulation and the effect of commercially available Hh inhibitors (Cyclopamine). The assay was performed in 384-well white opaque microplates. Gli Reporter-NIH3T3 cells were transferred to Opti-MEM medium with a reduced content of 0.5% (v/v) iron-supplemented bovine calf serum, supplemented with a 1% solution of nonessential amino acids, 1 mmol/L sodium pyruvate, and 10 mmol/L HEPES, and seeded on the panel in a volume of 25 μL of cell suspension per well at a concentration of 2.5 × 10^5/mL. The following day, compounds were transferred at the concentration range of 16–0.25 μmol/L (dilution factor 2) and incubated for 2 h. Then, the mSHH ligand at concentrations of 0.25 and 0.5 μg/mL and SAG (a synthetic SMO agonist) at concentrations of 2 and 4 nmol/L were added to the wells. Controls representing DMSO-treated cells were also included at a concentration of 0.1% (v/v). Cells were incubated for another 24–30 h and then kept for 30 min at room temperature, and finally, 25 μL of Britelite plus reagent was added to each well. Plates were placed on a shaker to achieve complete cell lysis, and luminescence was measured after 3 min on an EnVision plate reader.

Data set [2] in a line: Parallel Artificial Membrane Permeability Assay (PAMPA). It counts as in vitro ADME. The conditions noted are these: read-out: PAMPA log Pe (converted). An excerpt: The Parallel Artificial Membrane Permeability Assay (PAMPA) has emerged as a primary screen for determining passive transcellular permeability. […] The Caco-2 and MDCK-MDR1 permeability assays are established models of intestinal[37] and blood-brain barriers, respectively.[38]
Background: In PAMPA a lipid-coated filter parts donor from acceptor wells.

A short description of data set [3]: Microsomal stability, human liver microsomes with NADPH. It counts as in vitro ADME. The conditions noted are these: for Category of Intrinsic clearence: calculated from microsomal stability, category per ref 39; for Microsomal stability % Compound remaining 15 min / Microsomal stability % Compound remaining 30 min / Microsomal stability % Compound remaining 60 min: human liver microsomes, NADPH. How it is done: Data from a plasma protein binding study can inform about distribution into tissues of the body and reduction in the amount of drug available to be metabolized or cleared from the body. The measurement of plasma protein binding was performed using a Rapid Equilibrium Dialysis device; 11a and 11b compounds reported a percent of fraction bound around 90%. For the microsomal stability assay, human liver microsomes and NADPH cofactor were used to assess phase I oxidation by cytochrome P450 and flavin monooxygenases. The intrinsic clearance calculated from the microsomal stability assay indicated the medium category for both derivatives (Table 3).

The next data set relates to HCT116 p53–/–. Briefly: MTS cytotoxicity assay, 72 h, HCT116 p53–/–. In kind it is cell-based. The note with it: Homo sapiens, HCT-116, 72 h. In a few lines:
(§1)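 Treatment ran 72 h at 37 °C under 5% CO2, starting the day after plating, across 50–0.0975 μmol/L (dilution factor 2). Metabolic conversion of MTS was read at 490 nm to obtain IC50.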
In general terms: Formazan colour is commonly taken as a measure of viable cells.

The next data set concerns MRC-5 lung fibroblasts. Briefly: MTS cytotoxicity assay, 72 h, MRC-5 fibroblasts. It counts as cell-based, human. The conditions noted are these: Homo sapiens, MRC5, 72 h, normal fibroblasts. A digest of the protocol: as §1
The mark [4] stands for this setting: SAG (SMO agonist) 2 nM after 2 h preincubation, read-out: IC50 SAG stimulation 2 nM.
Where [5] appears, read: SAG (SMO agonist) 4 nM after 2 h preincubation, read-out: IC50 SAG stimulation 4 nM.
Where [6] appears, read: mSHH 0.25 μg/mL after 2 h preincubation, read-out: IC50 mSHH stimulation 0.25 (μg/mL).
Where [7] appears, read: mSHH 0.5 μg/mL after 2 h preincubation, read-out: IC50 mSHH stimulation 0.5 (μg/mL).

As for `C=C(C)[C@@H]1CC[C@]2(C(=O)O)CC[C@]3(C)C(CCC4[C@@]5(C)C=C(c6ccoc6)C(=O)C(C)(C)C5CC[C@]43C)C12` (some centres unmarked) [Compound 11b, 2-(Furan-3-yl)-3-oxolupa-1,20(29)-dien-28-oic acid], the IC50 stood at 3.5 ± 0.2 µM in data set [1] (setting [4]); 4.1 ± 0.4 µM in data set [1] (setting [5]); 3.2 ± 0.3 µM in data set [1] (setting [6]); 2.4 ± 0.3 µM in data set [1] (setting [7]); 14 µM in the data set on HCT116 p53–/– (Table 1); 13.5 µM in the data set on HCT116 p53–/– (full Table S1). The IC50 in the data set with MRC-5 lung fibroblasts (Table 1) stood at 24 µM; in the data set on MRC-5 lung fibroblasts (full Table S1), 23.9 µM. Further, the Papp in data set [2] was 0.0162 ×10⁻⁶ cm/s. Moreover, the “Category of Intrinsic clearence” value in data set [3] is recorded as “Medium”. Also, the “Microsomal stability % Compound remaining 15 min” value in data set [3] stood at 84%. For the same compound, in data set [3], the “Microsomal stability % Compound remaining 30 min” value came to 69%. Besides, the “Microsomal stability % Compound remaining 60 min” value in data set [3] was 51%.

For the compound `C=C(C)[C@@H]1CC[C@]2(C(=O)O)CC[C@]3(C)C(CCC4[C@@]5(C)C=C(c6ccco6)C(=O)C(C)(C)C5CC[C@]43C)C12` (some centres unmarked) [Compound 11a, 2-(Furan-2-yl)-3-oxolupa-1,20(29)-dien-28-oic acid], the IC50 in data set [1] (setting [4]) was determined as 4.5 ± 0.6 µM; in data set [1] (setting [5]) it was 3.8 ± 0.4 µM; in data set [1] (setting [6]), 3.5 ± 0.5 µM; in data set [1] (setting [7]), 1.9 ± 0.2 µM; in the data set on HCT116 p53–/– (Table 1), 12 µM; with HCT116 p53–/– (full Table S1) it was 12.4 µM. Also, the IC50 in the data set on MRC-5 lung fibroblasts (Table 1) worked out at 27 µM; with MRC-5 lung fibroblasts (full Table S1), 26.8 µM. Further, in data set [2], the Papp was 0.0158 ×10⁻⁶ cm/s. In addition, the “Category of Intrinsic clearence” value in data set [3] is listed as “Medium”. The “Microsomal stability % Compound remaining 15 min” value in data set [3] is listed as 88%. In addition, the “Microsomal stability % Compound remaining 30 min” value in data set [3] came to 72%. The “Microsomal stability % Compound remaining 60 min” value in data set [3] came to 52%.

The values above are taken from publication PMC11923649, “Novel C-2 Aromatic Heterocycle-Substituted Triterpenoids Inhibit Hedgehog Signaling in GLI1 Overexpression Cancer Cells” (ACS Omega, 2025).
